{"source": "ChEMBL document CHEMBL3507680", "about": "“University of Dundee, Gates Library screen for HepG2 cell viability”", "data": [{"assay": "Human HepG2 cell viability assay in 384 well format", "type": "toxicity, cell-based", "design": "dose 125 nL, time 70.5 hour; cytotoxicity at 70.5 h: concentration not given beside the values", "details": "HepG2 cells, read-out: Inhibition", "units": {"cytotoxicity at 70.5 h": "%"}, "values": [{"smiles": "Cc1ccc(-c2nc(CC(=O)N3CCN(c4cnccn4)CC3)cs2)o1", "cytotoxicity at 70.5 h": -4.05}, {"smiles": "Cc1cc2n(n1)CC(CNCc1ccc(Oc3ccccc3)nc1)CN2", "note": "(stereo unspecified)", "cytotoxicity at 70.5 h": 21.7}, {"smiles": "Cn1cc(C(=O)NC2CCN(C(=O)NCCSC(F)(F)F)CC2)cn1", "cytotoxicity at 70.5 h": -1.82}, {"smiles": "CCn1cc(CN2CCCN(C(=O)c3cc(C)no3)CC2)cn1", "cytotoxicity at 70.5 h": -2.69}, {"smiles": "COCCOCC(=O)Nc1ccc(C)cc1F", "cytotoxicity at 70.5 h": -7.66}, {"smiles": "NC(=O)CC1CCN(C(=O)NCCc2ccc(Cl)s2)CC1", "cytotoxicity at 70.5 h": -4.12}, {"smiles": "Cc1cc(C)n(CC2CN(CCOc3cccc(C#N)c3)CCO2)n1", "note": "(stereo unspecified)", "cytotoxicity at 70.5 h": 0.061}, {"smiles": "Cc1nc(Nc2ccccn2)cc(N2CCN(S(C)(=O)=O)CC2)n1", "cytotoxicity at 70.5 h": 11.2}, {"smiles": "O=C(NCCN1CCCCCC1=O)c1ccc(=O)[nH]n1", "cytotoxicity at 70.5 h": 2.56}, {"smiles": "CCN1CCO[C@]2(CCC[C@H]2COCc2csc(C)n2)C1", "cytotoxicity at 70.5 h": -7.19}, {"smiles": "CC(C)N1CCCn2nc(C(=O)NCCc3ccccn3)cc2C1", "cytotoxicity at 70.5 h": -9.32}, {"smiles": "CNS(=O)(=O)CCn1cc(-c2ccc(OC)c(OC)c2)nn1", "cytotoxicity at 70.5 h": -4.16}, {"smiles": "CC(C)c1noc(CN2CCN(C(=O)c3ccc(F)cc3)CC2)n1", "cytotoxicity at 70.5 h": -3.61}, {"smiles": "Cc1noc(C)c1CN1CCCC1c1c(C)nn(C)c1Cl", "note": "(stereo unspecified)", "cytotoxicity at 70.5 h": -2.34}, {"smiles": "O=C(c1cnc(O)c(Cl)c1)N1CCCC(c2nccs2)C1", "note": "(stereo unspecified)", "cytotoxicity at 70.5 h": 6.3}, {"smiles": "Cc1nc(CN2CC(CO)Oc3ccccc32)sc1C", "note": "(stereo unspecified)", "cytotoxicity at 70.5 h": -3.25}, {"smiles": "CCCn1nc(C(=O)NCCc2nnc3n2CCC3)ccc1=O", "cytotoxicity at 70.5 h": 1.09}, {"smiles": "COc1ccc(NC2CCc3c2[nH]c(=O)n(C2CCCCC2)c3=O)cc1", "note": "(stereo unspecified)", "cytotoxicity at 70.5 h": -28.5}, {"smiles": "O=C(c1cc2c(s1)CCC2)N1CCCCC1Cn1cccn1", "note": "(stereo unspecified)", "cytotoxicity at 70.5 h": -3.46}, {"smiles": "CN(C)Cc1cncc2c1CCN(Cc1ccoc1)C2", "cytotoxicity at 70.5 h": -4.55}, {"smiles": "CC(C)OCCCNC(=O)N(C)C(C)c1ccc(-n2cncn2)cc1", "note": "(stereo unspecified)", "cytotoxicity at 70.5 h": -6.64}, {"smiles": "Cc1nnc(CN2CCCC(CCc3ccccc3C(F)(F)F)C2)o1", "note": "(stereo unspecified)", "cytotoxicity at 70.5 h": -7.48}, {"smiles": "CN1CCCCC1c1nc(Cc2cccc(F)c2)no1", "note": "(stereo unspecified)", "cytotoxicity at 70.5 h": -7.67}, {"smiles": "O=C(C1CCCc2[nH]ncc21)N1CCCC2(C1)OCCO2", "note": "(stereo unspecified)", "cytotoxicity at 70.5 h": -9.5}, {"smiles": "Cc1ccnc(C2CCN(CCCOc3ccccc3F)C2)n1", "note": "(stereo unspecified)", "cytotoxicity at 70.5 h": -1.63}, {"smiles": "CN(CCCc1cc(-c2ccc(F)cc2)n(C)n1)CC(N)=O", "cytotoxicity at 70.5 h": -11.3}, {"smiles": "CC(C(=O)NC1CCN(C)CC1)n1nc(C(F)(F)F)c(Cl)c1C1CC1", "note": "(stereo unspecified)", "cytotoxicity at 70.5 h": 11.6}, {"smiles": "CC1(C)CN(C(=O)NCCc2ccn(-c3ccccc3)n2)CCO1", "cytotoxicity at 70.5 h": -12.4}, {"smiles": "CC(C)Oc1cccc(C(=O)C2CCCN(C(=O)c3ccoc3)C2)c1", "note": "(stereo unspecified)", "cytotoxicity at 70.5 h": -9.57}, {"smiles": "CN(C)C(=O)c1ccc(N2CCC3(CCC(=O)N(CCO)C3)CC2)nc1", "cytotoxicity at 70.5 h": -2.34}, {"smiles": "COc1ncc(NS(=O)(=O)c2ccc(OC)c(C)c2)c(OC)n1", "cytotoxicity at 70.5 h": 7.97}, {"smiles": "COC(C)(C)c1noc(C2(C#N)CCCC2)n1", "cytotoxicity at 70.5 h": -1.33}, {"smiles": "CCn1cncc1CNC(=O)c1ccc(C2CCCN2C(=O)COC)s1", "note": "(stereo unspecified)", "cytotoxicity at 70.5 h": -12}, {"smiles": "Cc1ccc(C(=O)N2CCN(CCc3ccccc3)CC2)c(=O)[nH]1", "cytotoxicity at 70.5 h": -7.75}, {"smiles": "Cn1ccnc1CN1CCCCC1Cn1cccn1", "note": "(stereo unspecified)", "cytotoxicity at 70.5 h": 11}, {"smiles": "CS(=O)(=O)N[C@@H]1CN(C(=O)c2cc3ccccc3s2)C[C@H]1O", "cytotoxicity at 70.5 h": 19}, {"smiles": "O=C(c1cccnc1O)N1CCC(COc2ccccc2)CC1", "cytotoxicity at 70.5 h": -14.5}, {"smiles": "O=C(CCN1CCc2ccccc21)N1CC(C(=O)N2CCOCC2)C1", "cytotoxicity at 70.5 h": -5.25}, {"smiles": "CC(C)C(=O)N1CCC2(CC1)[C@@H]1CN(C(=O)N(C)C)C[C@@H]1C(=O)N2C", "cytotoxicity at 70.5 h": 28.3}, {"smiles": "CC(C)n1cc(CN2CCCN(C(=O)C3(C)CCOCC3)CC2)cn1", "cytotoxicity at 70.5 h": -11.5}, {"smiles": "Cc1csc2c(C3CCN(CCCOc4ccccc4)CC3)nc(C)n12", "cytotoxicity at 70.5 h": -0.478}, {"smiles": "COc1nccc(N2CC[C@@H](N3CCN(C)CC3)[C@H](O)C2)c1C#N", "cytotoxicity at 70.5 h": -6.47}, {"smiles": "CC(C)(CO)NCc1nn(Cc2ccccc2)nc1-c1ccccc1", "cytotoxicity at 70.5 h": 27.2}, {"smiles": "c1ccc(CN2CCN(c3ccc4nncn4n3)CC2)nc1", "cytotoxicity at 70.5 h": -9.47}, {"smiles": "O=C(c1cc(C2CCCN(Cc3ccccn3)C2)no1)N1CCCC1", "note": "(stereo unspecified)", "cytotoxicity at 70.5 h": -1.56}, {"smiles": "CC(=O)N1CCc2ncn(C)c2C1C(=O)N1CCCC1", "note": "(stereo unspecified)", "cytotoxicity at 70.5 h": -6.96}, {"smiles": "O=C(c1cccnc1N1CCOCC1)N1CCCC1Cn1cccn1", "note": "(stereo unspecified)", "cytotoxicity at 70.5 h": -8.41}, {"smiles": "NCc1cnn(-c2ccccc2C(=O)N2CCCC(C(N)=O)C2)c1", "note": "(stereo unspecified)", "cytotoxicity at 70.5 h": -2.72}, {"smiles": "CCC(C(=O)N(C)Cc1cc(COC)[nH]n1)n1cccn1", "note": "(stereo unspecified)", "cytotoxicity at 70.5 h": -11.5}, {"smiles": "Cc1ccoc1C(=O)N1C[C@@H](OCC2CC2)[C@H]2OCCC[C@H]21", "cytotoxicity at 70.5 h": -1.01}, {"smiles": "Cc1noc(C)c1C(=O)N1CCC2(CC1)c1nc[nH]c1CCN2C", "cytotoxicity at 70.5 h": -3.9}, {"smiles": "Cc1noc(C)c1CCC(=O)N1CCCCC1CNS(C)(=O)=O", "note": "(stereo unspecified)", "cytotoxicity at 70.5 h": -7.67}, {"smiles": "CN(C)c1nc2c(c(N(C)C)n1)CCN(C(=O)CN1C[C@@H]3CC[C@H]1C3)C2", "cytotoxicity at 70.5 h": -6.59}, {"smiles": "CC(=O)N[C@@H]1CN(S(=O)(=O)c2ccc(Cl)cc2)C[C@H]1O", "cytotoxicity at 70.5 h": -7.41}, {"smiles": "Cn1cnc2c1CCN(CCCOc1ccc(C#N)cc1)C2", "cytotoxicity at 70.5 h": -10.6}, {"smiles": "Cc1ccc(-c2nc(CN3CCC(C(=O)N(C)C)CC3)cs2)o1", "cytotoxicity at 70.5 h": 9.92}, {"smiles": "CNC(=O)[C@@H]1CN(C(=O)CCOC)C[C@H]1c1ccnc(N2CCCC2)n1", "cytotoxicity at 70.5 h": -4.83}, {"smiles": "Cn1ccnc1CN1CCCN(C(=O)c2ccc(Cl)o2)CC1", "cytotoxicity at 70.5 h": -8.18}, {"smiles": "CC(C)=CCN1CCNC(=O)C1CC(=O)N1CCc2sccc2C1", "note": "(stereo unspecified)", "cytotoxicity at 70.5 h": -3.67}, {"smiles": "O=C(c1cscn1)N1CC[C@@H]2[C@@H]1CCN2C1CCOCC1", "cytotoxicity at 70.5 h": -3.43}, {"smiles": "CC1(C)OC(=O)N(CCCC(=O)c2ccc(F)cc2)C1=O", "cytotoxicity at 70.5 h": -16.8}, {"smiles": "CCS(=O)(=O)N1CCCC(c2nccn2Cc2cccnc2)C1", "note": "(stereo unspecified)", "cytotoxicity at 70.5 h": -7.4}, {"smiles": "O=S(=O)(c1ccccc1)N1CCC[C@]2(C[C@H](OCC3CC3)CO2)C1", "cytotoxicity at 70.5 h": -9.34}, {"smiles": "CC(=O)c1ccc(-c2cc(C(F)(F)F)cc(N(C)C)n2)cc1", "cytotoxicity at 70.5 h": -7.82}, {"smiles": "CCOC(=O)c1ccc(CNC(=O)c2ccc(Cl)cn2)o1", "cytotoxicity at 70.5 h": -6.63}, {"smiles": "CC(C)COCCNC(=O)NC1CCCN(c2cnn(C)c2)C1", "note": "(stereo unspecified)", "cytotoxicity at 70.5 h": -0.131}, {"smiles": "O=C(NCC1CCOC1)c1csc(Cc2ccccc2)n1", "note": "(stereo unspecified)", "cytotoxicity at 70.5 h": 19.4}, {"smiles": "CC(=O)c1cccc(NC(=O)c2cnc(N3CCN(C)CC3)nc2C)c1", "cytotoxicity at 70.5 h": 12.8}, {"smiles": "CCOC(=O)c1cnn(-c2cc(C)ccn2)c1N", "cytotoxicity at 70.5 h": 8.9}, {"smiles": "Cc1cccc(C2(CNC(=O)CCN3C(=O)CCC3=O)CCCC2)c1", "cytotoxicity at 70.5 h": 21}, {"smiles": "Cc1noc(C)c1CN(C)Cc1csc(-c2ncccn2)n1", "cytotoxicity at 70.5 h": -3.82}, {"smiles": "COCC1CC2(CCN(C(=O)c3cccn3C)CC2)CN1C(C)C", "note": "(stereo unspecified)", "cytotoxicity at 70.5 h": -0.557}, {"smiles": "O=C(C1CC1)N1CCC(c2nc(-c3ccccc3)n[nH]2)CC1", "cytotoxicity at 70.5 h": -1.09}, {"smiles": "Cc1ccc2c(n1)N(Cc1ccncc1)CCN(S(C)(=O)=O)C2", "cytotoxicity at 70.5 h": -10}, {"smiles": "COCc1ccc(C(=O)N2CCN(CC=C(C)C)[C@@H]3CS(=O)(=O)C[C@@H]32)o1", "cytotoxicity at 70.5 h": -0.472}, {"smiles": "O=C1N[C@@H]2CCN(C(=O)N3CCOCC3)[C@@H]2C(=O)N1Cc1ccccc1", "cytotoxicity at 70.5 h": -4.61}, {"smiles": "C1CC(CN2CCCCC2C2OCCO2)C1", "note": "(stereo unspecified)", "cytotoxicity at 70.5 h": 3.56}, {"smiles": "CCOC(=O)CCC(=O)N1CCC(Oc2ncccc2Cl)CC1", "cytotoxicity at 70.5 h": -4.05}, {"smiles": "CCC(c1ccccc1)S(=O)(=O)CCO", "note": "(stereo unspecified)", "cytotoxicity at 70.5 h": -2.1}, {"smiles": "CCOCCCNC(=O)c1cn(CC)nc1C", "cytotoxicity at 70.5 h": -8.03}, {"smiles": "Cc1cc(CN2CCN(C(=O)CCc3ccco3)CC2)on1", "cytotoxicity at 70.5 h": -9.48}]}]}
